Source: patent US11319283B2, “Substituted cyclobutylbenzene compounds as indoleamine 2,3-dioxygenase (IDO) inhibitors” (MERCK SHARP & DOHME CORP., priority 2017, dated 2022)

Key:
TDO = molecular target: T1, TDO (Homo sapiens, UniProt P48775); experiment: TDO Cellular Assay in Frozen SW48 Cells; format: cell-based; conditions: 300 uM L-tryptophan, about 48 hours, fluorescence readout
T1 construct: endogenous in cells; host or cells: SW48 cells (A2780 cells as control with minimal TDO activity)
Experimental: TDO Cellular Assay in Frozen SW48 Cells
SW48 cells were cultured in complete RPMI culture medium (90% RPMI, 10% heat-inactivated fetal bovine serum).
Compounds to be tested were serially diluted in ten 3-fold steps in DMSO starting from 10 mM DMSO stocks in Echo low volume plate(s). […] The cells were spun down at 350 g in a table top centrifuge for 5 minutes and suspended in same volume of RPMI assay medium. […] Sterile L-tryptophan (Sigma, Cat # T0254) was added to the cells with final concentration of 300 uM.
SW48 and A2780 cells were dispensed to the respective wells of 384-well assay plates containing the compounds. The plates were incubated for about 48 hours at a 37° C., 5% CO2 incubator. Afterwards, 12 μL of 0.5 M ethyl isonipecotate (Sigma Aldrich, Cat # E33505) in dimethyl sulfoxide were added into each well and the plates were sealed and incubated at 37° C. without CO2 overnight. The plates were centrifuged for 1 minute at 200×g. The resulting fluorescence was measured in a Spectramax plate reader (Molecular Devices) with a 400 nm excitation filter and a 510 nm emission filter.
The fluorescence intensity of each well was corrected for the background observed in wells with A2780 cells and was expressed as a fraction of the intensity observed in wells of SW48 cells and DMSO only. Potencies were calculated by linear least squares fit to the four parameter logistic IC50 equation.

IDO1 = IDO1 (Homo sapiens, UniProt P14902); experiment: IDO1 Cellular Assay in Hela Cells Stimulated with IFNγ; format: cell-based; set-up: endogenous in cells; host or cells: HeLa cells stimulated with IFNγ (100 ng/mL); conditions: Hela cells stimulated with IFNγ 100 ng/mL, 300 uM L-tryptophan, about 48 hours, fluorescence readout
Sequence of IDO1 (P14902 whole entry): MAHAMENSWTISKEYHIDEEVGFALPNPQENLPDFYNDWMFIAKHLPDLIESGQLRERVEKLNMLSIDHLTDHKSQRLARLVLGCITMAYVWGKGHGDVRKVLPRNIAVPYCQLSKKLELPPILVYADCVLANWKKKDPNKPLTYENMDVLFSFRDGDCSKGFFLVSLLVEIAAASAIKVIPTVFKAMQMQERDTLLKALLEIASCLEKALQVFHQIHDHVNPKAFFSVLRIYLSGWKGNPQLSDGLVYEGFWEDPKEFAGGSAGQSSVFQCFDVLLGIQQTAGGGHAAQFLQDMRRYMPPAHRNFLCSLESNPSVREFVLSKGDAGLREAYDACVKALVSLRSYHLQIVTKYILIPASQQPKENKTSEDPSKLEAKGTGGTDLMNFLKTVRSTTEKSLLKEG
Experimental: IDO1 Cellular Assay in Hela Cells Stimulated with IFNγ
Hela cells were cultured in complete Hela culture medium (90% EMEM, 10% heat-inactivated fetal bovine serum) and expanded to about 1×10^9 cells. The cells were then collected and frozen down at 1×10^7 cells/vial in 1 mL frozen medium (90% complete Hela culture medium, 10% DMSO)
Compounds to be tested were serially diluted in ten 3-fold steps in DMSO starting from 10 mM DMSO stocks in Echo low volume plate(s).
Frozen Hela cells were thawed and transferred into Hela assay medium (99% complete Hela culture medium, 1% Pen/Strep) with 20 mL medium/vial of cells. The cells were spun down at 250 g in a table top centrifuge for 5 min and suspended in same volume of Hela assay medium. The cells were then counted and adjusted to a density of 2×10^5 cells/ml in Hela assay medium. Sterile L-tryptophan were added to the cells with final concentration of 300 uM L-tryptophan. A small aliquot (2 mL/plate) of Hela cells were set aside and were not treated with IFNγ, to serve as the Max-E control.
Hela cells with and without IFNγ were dispensed to the respective wells of 384-well assay plates containing the compounds. The plates were incubated for about 48 hours at a 37° C., 5% CO2 incubator. Afterwards, […] of 0.5 M methyl isonipecotate in dimethyl sulfoxide were added into each well and the plates were sealed and incubated at 37° C. without CO2 overnight. The plates were centrifuged for 1 min at 200×g. The resulting fluorescence was measured in a Spectramax plate reader (Molecular Devices) with a 400 nm excitation filter and a 510 nm emission filter.
Potencies were calculated by linear least squares fit to the four parameter logistic IC50 equation.

T1 sequence (P48775 whole entry): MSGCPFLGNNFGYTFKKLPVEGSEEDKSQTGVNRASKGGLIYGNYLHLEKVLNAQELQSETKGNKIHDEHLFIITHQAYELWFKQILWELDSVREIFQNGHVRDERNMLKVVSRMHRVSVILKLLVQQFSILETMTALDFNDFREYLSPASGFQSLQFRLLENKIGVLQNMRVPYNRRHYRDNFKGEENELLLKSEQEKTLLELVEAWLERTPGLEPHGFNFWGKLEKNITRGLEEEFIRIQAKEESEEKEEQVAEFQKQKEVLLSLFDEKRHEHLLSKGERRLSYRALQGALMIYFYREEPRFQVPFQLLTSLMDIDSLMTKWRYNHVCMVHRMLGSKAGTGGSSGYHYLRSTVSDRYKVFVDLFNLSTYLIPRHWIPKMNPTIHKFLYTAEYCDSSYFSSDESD

Row | SMILES | IC50 (TDO) [nM] | IC50 (IDO1) [nM]
1 | CC1CC1NC(=O)C1(c2ccc(NC(=O)c3cccc(Cl)c3)cc2)CCC1 (single isomer, unassigned) [Example 22, 3-chloro-N-(4-(1-((2-methylcyclopropyl)carbamoyl)cyclobutyl)phenyl)benzamide] | ≥ 10000 | 35
2 | CC1CC1NC(=O)C1(c2ccc(NC(=O)c3cccc(Cl)c3)cc2)CCC1 (single isomer, unassigned) [Example 23, 3-chloro-N-(4-(1-((2-methylcyclopropyl)carbamoyl)cyclobutyl)phenyl)benzamide] | ≥ 10000 | 78
3 | CCCC(=O)NC1(c2ccc(NC(=O)c3cccc(Cl)c3)cc2)CCC1 [Example 1, N-(4-(1-Butyramidocyclobutyl)phenyl)-3-chlorobenzamide] | – | 48
4 | O=C(Nc1ccc(C2(NC(=O)c3ncccc3Cl)CCC2)cc1)c1cccc(Cl)c1 [Example 4, 3-chloro-N-(1-{4-[(3-chlorobenzene-1-carbonyl)amino]phenyl}cyclobutyl)pyridine-2-carboxamide] | ≥ 10000 | 136
5 | O=C(Nc1ccc(C2(NC(=O)c3cc(Cl)ccn3)CCC2)cc1)c1cccc(Cl)c1 [Example 5, 4-chloro-N-(1-{4-[(3-chlorobenzene-1-carbonyl)amino]phenyl}cyclobutyl)pyridine-2-carboxamide] | ≥ 10000 | 136
6 | O=C(Nc1ccc(C2(NC(=O)c3ccc(Cl)c(F)c3)CCC2)cc1)c1cccc(Cl)c1 [Example 8, 4-chloro-N-(1-{4-[(3-chlorobenzene-1-carbonyl)amino]phenyl}cyclobutyl)-3-fluorobenzamide] | ≥ 10000 | 4
7 | O=C(Nc1ccc(C2(NC(=O)c3ccc(F)c(F)c3)CCC2)cc1)c1cccc(Cl)c1 [Example 10, N-(1-{4-[(3-chlorobenzene-1-carbonyl)amino]phenyl}cyclobutyl)-3,4-difluorobenzamide] | ≥ 10000 | 14
8 | O=C(Nc1ccc(C2(NC(=O)c3ccc(Cl)c(Cl)c3)CCC2)cc1)c1cccc(Cl)c1 [Example 11, 3,4-dichloro-N-(1-{4-[(3-chlorobenzene-1-carbonyl)amino]phenyl}cyclobutyl)benzamide] | ≥ 10000 | 19
9 | O=C(Nc1ccc(C2(C(=O)NC3CC(F)(F)C3)CCC2)cc1)c1cccc(Cl)c1 [Example 38, 3-chloro-N-(4-{1-[(3,3-difluorocyclobutyl)carbamoyl]cyclobutyl}phenyl) benzamide] | – | 31
10 | CC(NC(=O)C1(c2ccc(NC(=O)c3cccc(Cl)c3)cc2)CCC1)C1CCCO1 (stereo not shown) [Example 43, 3-chloro-N-[4-(1-{[1-(oxolan-2-yl)ethyl]carbamoyl}cyclobutyl)phenyl]benzamide] | – | 660
11 | CCCNC(=O)C1(c2ccc(NC(=O)c3ccc(CN)cc3)cc2)CCC1 [Example 55, 4-(aminomethyl)-N-{4-[1-(propylcarbamoyl)cyclobutyl]phenyl} benzamide] | – | 613
12 | CCCNC(=O)C1(c2ccc(NC(=O)c3cc(C)no3)cc2)CCC1 [Example 56, 3-methyl-N-{4-[1-(propylcarbamoyl)cyclobutyl]phenyl}-1,2-oxazole-5-carboxamide] | – | 923
13 | CCCNC(=O)C1(c2ccc(NC(=O)c3coc(CC)n3)cc2)CCC1 [Example 57, 2-ethyl-N-{4-[1-(propylcarbamoyl)cyclobutyl]phenyl}-1,3-oxazole-4-carboxamide] | – | 1710

Further compounds by falling IC50 (IDO1), results first:

Row | IC50 (TDO) [nM] | IC50 (IDO1) [nM] | SMILES
14 | – | 2010 | CCCNC(=O)C1(c2ccc(NC(=O)c3cn4ncccc4n3)cc2)CCC1 [Example 58, N-{4-[1-(propylcarbamoyl)cyclobutyl]phenyl}imidazo[1,2-b]pyridazine-2-carboxamide]
15 | ≥ 10000 | 577 | Cn1ccnc1C(=O)NC1(c2ccc(NC(=O)c3cccc(Cl)c3)cc2)CCC1 [Example 6, N-(1-{4-[(3-chlorobenzene-1-carbonyl)amino]phenyl}cyclobutyl)-1-methyl-1H-imidazole-2-carboxamide]
16 | – | 500 | CCCNC(=O)C1(c2ccc(NC(=O)c3nnsc3C)cc2)CCC1 [Example 54, 5-Methyl-N-(4-(1-(propylcarbamoyl)cyclobutyl)phenyl)-1,2,3-thiadiazole-4-carboxamide]
17 | – | 151 | CCNC(=O)C1(c2ccc(NC(=O)c3cccc(Cl)c3)cc2)CCC1 [Example 50]
18 | ≥ 10000 | 131 | O=C(Nc1ccc(C2(NC(=O)c3cnccn3)CCC2)cc1)c1cccc(Cl)c1 [Example 3, N-(1-{4-[(3-chlorobenzene-1-carbonyl)amino]phenyl}cyclobutyl)pyrazine-2-carboxamide]
19 | – | 101 | CC(NC(=O)C1(c2ccc(NC(=O)c3cccc(Cl)c3)cc2)CCC1)C1CC1 (stereo not shown) [Example 41, 3-chloro-N-(4-{1-[(1-cyclopropylethyl)carbamoyl]cyclobutyl}phenyl) benzamide]
20 | ≥ 10000 | 92 | O=C(Nc1ccc(C2(NC(=O)c3cocn3)CCC2)cc1)c1cccc(Cl)c1 [Example 16, N-(1-{4-[(3-chlorobenzene-1-carbonyl)amino]phenyl}cyclobutyl)-1,3-oxazole-4-carboxamide]
21 | – | 34 | O=C(Nc1ccc(C2(C(=O)NC34CC(C3)C4)CCC2)cc1)c1cccc(Cl)c1 [Example 39, N-(4-{1-[(bicyclo[1.1.1]pentan-1-yl)carbamoyl]cyclobutyl}phenyl)-3-chlorobenzamide]
22 | ≥ 10000 | 30 | Cn1ccc(C(=O)NC2(c3ccc(NC(=O)c4cccc(Cl)c4)cc3)CCC2)n1 [Example 13, N-(1-{4-[(3-chlorobenzene-1-carbonyl)amino]phenyl}cyclobutyl)-1-methyl-1H-pyrazole-3-carboxamide]
23 | – | 27 | O=C(Nc1ccc(C2(C(=O)NCC3CC3)CCC2)cc1)c1cccc(Cl)c1 [Example 48, 3-chloro-N-(4-{1-[(cyclopropylmethyl)carbamoyl]cyclobutyl}phenyl)benzamide]
24 | – | 26 | O=C(Nc1ccc(C2(C(=O)NCCC(F)(F)F)CCC2)cc1)c1cccc(Cl)c1 [Example 47, 3-chloro-N-(4-{1-[(3,3,3-trifluoropropyl)carbamoyl]cyclobutyl}phenyl) benzamide]
25 | – | 13 | CC1CC1NC(=O)C1(c2ccc(NC(=O)c3cccc(Cl)c3)cc2)CCC1 (stereo not shown) [Example 46, 3-chloro-N-(4-{1-[(2-methylcyclopropyl)carbamoyl]cyclobutyl}phenyl) benzamide]
26 | ≥ 10000 | 11 | O=C(Nc1ccc(C2(NC(=O)c3ccc(Cl)cn3)CCC2)cc1)c1cccc(Cl)c1 [Example 9, 5-chloro-N-(1-{4-[(3-chlorobenzene-1-carbonyl)amino]phenyl}cyclobutyl)pyridine-2-carboxamide]
27 | ≥ 10000 | 4 | O=C(Nc1ccc(C2(C(=O)Nc3ccc(F)nc3)CCC2)cc1)c1cccc(Cl)c1 [Example 29, 3-chloro-N-(4-{1-[(6-fluoropyridin-3-yl)carbamoyl]cyclobutyl}phenyl)benzamide]
28 | ≥ 10000 | 3 | O=C(Nc1ccc(C2(C(=O)Nc3ccc(Cl)cc3)CCC2)cc1)c1cccc(Cl)c1 [Example 24, 3-chloro-N-(4-{1-[(4-chlorophenyl)carbamoyl]cyclobutyl}phenyl) benzamide]
29 | ≥ 10000 | 3 | O=C(Nc1ccc(C2(C(=O)Nc3ccc(F)cc3F)CCC2)cc1)c1cccc(Cl)c1 [Example 25, 3-chloro-N-(4-{1-[(2,4-difluorophenyl)carbamoyl]cyclobutyl}phenyl) benzamide]
30 | ≥ 10000 | 3 | O=C(Nc1ccc(C2(C(=O)Nc3ccc(F)c(F)c3)CCC2)cc1)c1cccc(Cl)c1 [Example 26, 3-chloro-N-(4-{1-[(3,4-difluorophenyl)carbamoyl]cyclobutyl}phenyl) benzamide]
